Measurements reported in paper PMC10257182, “Discovery of senolytics using machine learning” (Nature Communications, 2023).
Read-outs that look alike come from different tables or passages of the source.

System: senescent IMR90 ER:RAS cells (4-OHT-induced)
Assay: Nuclei count (Hoechst, high content imaging) senolytic assay, oncogene-induced senescence (OIS) model, senescent cells
Type: cell-based, human
Conditions: for viability at 10 µM / viability at 4.677 µM / viability at 2.188 µM / viability at 1 µM / viability at 0.4677 µM / viability at 0.2188 µM / viability at 0.1 µM / viability at 0.04677 µM / viability at 0.02188 µM / viability at 0.01 µM: Homo sapiens; for senolytic activity (in words): experimental screen, OIS IMR90 ER:RAS
Source text: To test for senolytic activity, we compared the effect of each compound on the total cell number (automated high content image-based analysis of total number of nuclei per well) in non-senescent and senescent IMR90 ER:RAS cultures treated with the top hits from the computational screen (Figs. 2e and 3a–d and Supplementary Fig. 4a–c). The drop in cell number compared to untreated controls is indicated by the nuclei count and reflects cell death[13],[15]. As positive control, we employed ouabain, a cardiac glycoside with well characterised senolytic activity.
We performed experimental validation of the compounds with z-score > 8 (Fig. 2e). […] We employed two cellular models of senescence: one of OIS and a second one of TIS. For the OIS case, we utilised IMR90 ER:RAS cells with 4-OHT at 100 nM. […] For the TIS model, we used A549 cells with etoposide at 100 μM. The exposure of the cells to etoposide lasted 48 h, after which period the cells were cultivated for a further three days with normal media.
IMR90 (CCL-186) human foetal lung fibroblasts and A549 (CCL-185) human lung adenocarcinoma cells were obtained from the American Type Culture Collection (ATCC, Manassas, VA). The cell lines were confirmed to be mycoplasma negative (Lonza MycoAlert, cat #LT07-118). IMR90 ER:RAS is a derivative of IMR90 cells expressing a switchable version of oncogenic H-Ras[84]. IMR90 ER:RAS and A549 cells were maintained in Dulbecco’s Modified Eagle Medium (DMEM, ThermoFisher) supplemented with foetal bovine serum (10%), L-glutamine (2 mM, ThermoFisher), and antibiotic-antimycotic solution (1%, ThermoFisher) and incubated under standard tissue culture conditions (37 °C and 5% CO2). For induction of the senescent phenotype, IMR90-ER:RAS cells were cultured in hydroxytamoxifen (4-OHT) (Sigma) added media at 100 nM final concentration. IMR90 were kept in culture for over 27 passages for replicative senescence. Cells were tested for mycoplasma on a regular basis.
Cells were seeded (50 μL per well) into 384-well plates (IMR90 ER:RAS cells in Nunc Optical Bottom Polybase Microplates [#142761, Thermo Scientific, Rochester, NY] and A549 cells in CELLSTAR Cell Culture Microplates [#781091, Greiner Bio-One, Kremsmünster, Austria]). Cells were incubated under standard tissue culture conditions for 24 h before the addition of compounds. Passage 14 IMR90 ER:RAS cells were seeded at 1300 cells per well in the control condition, and at 1600 cells per well in the senescent case. Passage 34 A549 cells were seeded at 7000 cells per well in the control condition, and at 10,000 cells per well in the senescent case.
Dose response plates were prepared with a DMSO control and a 10-point […] concentration range, and added to the compounds using a D300e digital dispenser (Tecan Trading AG, Switzerland) at a final concentration of between 10 μM and 10 nM. Every screened condition was carried out in triplicate. After 72 h of incubation with exposure to the compounds, cells were fixed by the addition of an equal volume of formaldehyde (8%, 50 μL; #BP531-500, Fisher Bioreagents, Fisher Scientific, Loughborough, Leicestershire) to the existing media, incubated at room temperature (30 min), and washed three times in phosphate-buffered saline (PBS). Cells were then permeabilised in Triton-X100 (0.1%, 50 μL) and incubated at room temperature (30 min) followed by three more washes with PBS.
Cells were stained with Hoechst 33342 for nuclei count (excitation/emission wavelength at 387/447 […], DAPI channel, original concentration at 10 mg/ml, final concentration at 2 μg/ml; H1399, Molecular Probes, Eugene, OR). The staining solution was prepared in bovine serum albumin solution (10%). The staining solution was added to each well (30 μL) and incubated in the dark at room temperature (30 min), followed by three washes with PBS and no final aspiration. Plates were foil sealed.

[1] = IMR-90, 72 h, Senescent, log (dose) [M] -5, 72 h, mean n=3 (Fig 3C), read-out: Mean % Cell Survival
[2] = IMR-90, 72 h, Senescent, log (dose) [M] -5.33, 72 h, mean n=3 (Fig 3C), read-out: Mean % Cell Survival
[3] = IMR-90, 72 h, Senescent, log (dose) [M] -5.66, 72 h, mean n=3 (Fig 3C), read-out: Mean % Cell Survival
[4] = IMR-90, 72 h, Senescent, log (dose) [M] -6, 72 h, mean n=3 (Fig 3C), read-out: Mean % Cell Survival
[5] = IMR-90, 72 h, Senescent, log (dose) [M] -6.33, 72 h, mean n=3 (Fig 3C), read-out: Mean % Cell Survival
[6] = IMR-90, 72 h, Senescent, log (dose) [M] -6.66, 72 h, mean n=3 (Fig 3C), read-out: Mean % Cell Survival
[7] = IMR-90, 72 h, Senescent, log (dose) [M] -7, 72 h, mean n=3 (Fig 3C), read-out: Mean % Cell Survival
[8] = IMR-90, 72 h, Senescent, log (dose) [M] -7.33, 72 h, mean n=3 (Fig 3C), read-out: Mean % Cell Survival
[9] = IMR-90, 72 h, Senescent, log (dose) [M] -7.66, 72 h, mean n=3 (Fig 3C), read-out: Mean % Cell Survival
[10] = IMR-90, 72 h, Senescent, log (dose) [M] -8, 72 h, mean n=3 (Fig 3C), read-out: Mean % Cell Survival
[11] = IMR-90, Senescent, log (dose) [M] -5, read-out: % Cell Survival
[12] = IMR-90, Senescent, log (dose) [M] -5.33, read-out: % Cell Survival
[13] = IMR-90, Senescent, log (dose) [M] -5.66, read-out: % Cell Survival
[14] = IMR-90, Senescent, log (dose) [M] -6, read-out: % Cell Survival
[15] = IMR-90, Senescent, log (dose) [M] -7, read-out: % Cell Survival
[16] = IMR-90, Senescent, log (dose) [M] -8, read-out: % Cell Survival
[17] = IMR-90, Senescent cells, log (dose) [M] -5, individual replicates, SUP FIG 4C, read-out: % Cell Survival
[18] = IMR-90, Senescent cells, log (dose) [M] -5.66, individual replicates, SUP FIG 4C, read-out: % Cell Survival
[19] = IMR-90, Senescent cells, log (dose) [M] -7.33, individual replicates, SUP FIG 4C, read-out: % Cell Survival
[20] = IMR-90, Senescent cells, log (dose) [M] -7.66, individual replicates, SUP FIG 4C, read-out: % Cell Survival
[21] = IMR-90, Senescent, log (dose) [M] -6.66, read-out: % Cell Survival
[22] = IMR-90, Senescent, log (dose) [M] -7.66, read-out: % Cell Survival

Structure (SMILES)	viability at 10 µM [1]	viability at 4.677 µM [2]	viability at 2.188 µM [3]	viability at 1 µM [4]	viability at 0.4677 µM [5]	viability at 0.2188 µM [6]	viability at 0.1 µM [7]	viability at 0.04677 µM [8]	viability at 0.02188 µM [9]	viability at 0.01 µM [10]	viability at 10 µM [11]	viability at 4.677 µM [12]	viability at 2.188 µM [13]	viability at 1 µM [14]	viability at 0.1 µM [15]	viability at 0.01 µM [16]	viability at 10 µM [17]	viability at 2.188 µM [18]	senolytic activity (in words)	viability at 0.04677 µM [19]	other results
Cc1cnc(C(=O)N[C@H]2CCCCC/C=C\[C@@H]3C[C@@]3(C(=O)NS(=O)(=O)C3CC3)NC(=O)[C@@H]3C[C@@H](Oc4nc5ccccc5c5ccccc45)CN3C2=O)cn1 [Paritaprevir, paritaprevir, reference compound]	69.5%	86.5%	70.9%	67.9%	78.9%	76.2%	79.8%	84.7%	86.9%	70.3%	115%	110%	113%	105%	112%	107%	–	–	–	–	viability at 4.677 µM (IMR-90, Senescent cells, log (dose) [M] -5.33, individual replicates, SUP FIG 4C, read-out: % Cell Survival): 87.6%; viability at 0.1 µM (IMR-90, Senescent cells, log (dose) [M] -7, individual replicates, SUP FIG 4C, read-out: % Cell Survival): 75%; viability at 0.4677 µM (IMR-90, Senescent, log (dose) [M] -6.33, read-out: % Cell Survival): 111%; viability at 0.04677 µM (IMR-90, Senescent, log (dose) [M] -7.33, read-out: % Cell Survival): 118%
COc1cc(/C=C/C(=O)O[C@H]2CC[C@]34C[C@]35CC[C@]3(C)[C@@H]([C@H](C)CCC=C(C)C)CC[C@@]3(C)[C@@H]5CC[C@H]4C2(C)C)ccc1O [Gamma oryzanol, gamma oryzanol]	145%	134%	135%	139%	141%	142%	132%	151%	154%	125%	–	–	–	–	–	81.6%	150%	137%	inactive	–	viability at 0.4677 µM (IMR-90, Senescent cells, log (dose) [M] -6.33, individual replicates, SUP FIG 4C, read-out: % Cell Survival): 153%
O=c1c(O)c(-c2ccc(O)cc2O)oc2cc(O)cc(O)c12 [Morin, morin]	75%	90.7%	96.2%	91.1%	91.7%	92.4%	96.6%	95.3%	92.3%	94.2%	–	–	55.7%	62.4%	–	93.7%	75.9%	–	inactive	87%	viability at 0.02188 µM [20]: 91.1%; viability at 0.2188 µM [21]: 63.2%; viability at 0.02188 µM [22]: 95.7%
CO[C@H]1C[C@@H]2CC[C@@H](C)[C@@](O)(O2)C(=O)C(=O)N2CCCC[C@H]2C(=O)O[C@H]([C@H](C)C[C@@H]2CC[C@@H](OP(C)(C)=O)[C@H](OC)C2)CC(=O)[C@H](C)/C=C(\C)[C@@H](O)[C@@H](OC)C(=O)[C@H](C)C[C@H](C)/C=C/C=C/C=C/1C [Ridaforolimus, ridaforolimus, reference compound]	122%	144%	164%	156%	160%	156%	126%	128%	131%	105%	–	–	–	–	–	78.7%	–	166%	–	–	viability at 0.02188 µM [20]: 129%; viability at 0.02188 µM [22]: 81.7%
CO[C@H]1C[C@@H]2CC[C@@H](C)[C@@](O)(O2)C(=O)C(=O)N2CCCC[C@H]2C(=O)O[C@H]([C@H](C)C[C@@H]2CC[C@@H](OCCO)[C@H](OC)C2)CC(=O)[C@H](C)/C=C(\C)[C@@H](O)[C@@H](OC)C(=O)[C@H](C)C[C@H](C)/C=C/C=C/C=C/1C [Everolimus, everolimus, reference compound]	82.2%	80%	87.3%	92.8%	92.3%	92.6%	93.7%	88.2%	90.5%	93.7%	67.8%	92.4%	80%	–	80.3%	–	–	–	–	–	viability at 0.2188 µM [21]: 80.7%
Cc1cc2c(C(C)C)c(O)c(O)c(C=O)c2c(O)c1-c1c(C)cc2c(C(C)C)c(O)c(O)c(C=O)c2c1O [Gossypol, gossypol]	26.6%	121%	156%	166%	168%	188%	130%	120%	145%	116%	–	–	–	–	–	–	–	–	–	127%	viability at 0.2188 µM (IMR-90, Senescent cells, log (dose) [M] -6.66, individual replicates, SUP FIG 4C, read-out: % Cell Survival): 189%
